In patent US20100029657A1, “Bridged, Bicyclic Heterocyclic or Spiro Bicyclic Heterocyclic Derivatives of Pyrazolo[1, 5-A]Pyrimidines, Methods for Preparation and Uses Thereof” (Wyeth, priority 2008, published 2010):

molecular target: T1, Flag/GST-tagged recombinant human B-Raf (Homo sapiens, UniProt P15056); assay: B-Raf kinase assay (phosphorylation of GST-MEK1, phospho-MEK1 antibody/Europium detection); type: biochemical; details: B-Raf IC50 Data for compounds of Formula A; read-out: Mean IC50
T1 construct: Flag; GST; made in house; host or cells: Sf9 insect cells (B-Raf); E. coli (MEK1-GST)
Outline: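 Percent inhibition was calculated at each compound concentration from Europium time-resolved fluorescence (anti-phospho-MEK1, then Eu-conjugated anti-rabbit) after GST capture. The upstream kinase step used GST-MEK1 with 0.2 nM B-Raf for 45 min at room temperature in MOPS buffer, pH 7.2. It was started with a cocktail of 200 μM ATP and 40 mM MgCl2.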

T1 sequence (P15056 whole entry): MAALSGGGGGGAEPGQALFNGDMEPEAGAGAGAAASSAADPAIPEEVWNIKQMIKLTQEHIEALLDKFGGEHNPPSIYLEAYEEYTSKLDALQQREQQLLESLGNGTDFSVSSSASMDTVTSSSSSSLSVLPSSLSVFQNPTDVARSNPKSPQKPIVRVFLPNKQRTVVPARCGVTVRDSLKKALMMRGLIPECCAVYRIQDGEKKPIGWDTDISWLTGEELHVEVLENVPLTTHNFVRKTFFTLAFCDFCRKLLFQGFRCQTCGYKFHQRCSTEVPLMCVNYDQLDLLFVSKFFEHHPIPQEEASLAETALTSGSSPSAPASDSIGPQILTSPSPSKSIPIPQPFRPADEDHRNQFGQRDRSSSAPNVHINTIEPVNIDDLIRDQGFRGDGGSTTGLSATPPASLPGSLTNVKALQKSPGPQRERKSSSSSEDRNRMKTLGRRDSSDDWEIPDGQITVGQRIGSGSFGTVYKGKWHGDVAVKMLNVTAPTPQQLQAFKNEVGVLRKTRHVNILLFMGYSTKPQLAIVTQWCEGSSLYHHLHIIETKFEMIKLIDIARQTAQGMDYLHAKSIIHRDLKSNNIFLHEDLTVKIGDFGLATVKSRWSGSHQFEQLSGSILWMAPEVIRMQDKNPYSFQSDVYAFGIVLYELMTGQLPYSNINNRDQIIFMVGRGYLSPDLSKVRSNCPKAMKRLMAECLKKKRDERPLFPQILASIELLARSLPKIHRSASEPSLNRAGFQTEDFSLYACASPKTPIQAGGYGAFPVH

Structure (SMILES)	IC50
Fc1cc(-c2ccnc3c(-c4cccc5[nH]ncc45)c(-c4ccncc4)nn23)ccc1N1C[C@@H]2C[C@H]1CN2 [Example 185, 7-{4-[(1S,4S)-2,5-diazabicyclo[2.2.1]hept-2-yl]-3-fluorophenyl}-3-(1H-indazol-4-yl)-2-pyridin-4-ylpyrazolo[1,5-a]pyrimidine]	0.0017 µM
CCOC(=O)N1C2CCC1CC(c1ccnc3c(-c4ccc(Cl)c(OC)c4)c(-c4ccncc4)nn13)C2 (stereo not shown) [Example 10, Ethyl 3-(3-(4-chloro-3-methoxyphenyl)-2-(pyridin-4-yl)pyrazolo[1,5-a]pyrimidin-7-yl)-8-azabicyclo[3.2.1]octane-8-carboxylate]	0.054 µM
Oc1cc(-c2c(-c3ccncc3)nn3c(C4CC5CCC(C4)N5)ccnc23)ccc1Cl (stereo not shown) [Example 12, 5-(7-(8-Azabicyclo[3.2.1]octan-3-yl)-2-(pyridin-4-yl)pyrazolo[1,5-a]pyrimidin-3-yl)-2-chlorophenol]	0.0004 µM
CCN1C2CCC1CC(c1ccnc3c(-c4ccc(NC(N)=O)cc4)c(-c4ccncc4)nn13)C2 (stereo not shown) [Example 23, 1-(4-(7-(8-Ethyl-8-azabicyclo[3.2.1]octan-3-yl)-2-(pyridin-4-yl)pyrazolo[1,5-a]pyrimidin-3-yl)phenyl)urea]	> 1 µM
c1cc(CN2C[C@@H]3C[C@H]2CN3)cc(-c2ccnc3c(-c4cccc5[nH]ncc45)c(-c4ccncc4)nn23)c1 [Example 208, 7-{3-[(1S,4S)-2,5-diazabicyclo[2.2.1]hept-2-ylmethyl]phenyl}-3-(1H-indazol-4-yl)-2-pyridin-4-ylpyrazolo[1,5-a]pyrimidine]	0.042 µM
CC(C)(C)OC(=O)N1C[C@@H]2C[C@H]1CN2c1ccc(-c2ccn3nc(-c4ccncc4)c(-c4ccc(F)c5[nH]ncc45)c3n2)cc1 [Example 122, tert-butyl (1S,4S)-5-{4-[3-(7-fluoro-1H-indazol-4-yl)-2-pyridin-4-ylpyrazolo[1,5-a]pyrimidin-5-yl]phenyl}-2,5-diazabicyclo[2.2.1]heptane-2-carboxylate]	0.0191 µM
Oc1cccc(-c2c(-c3ccncc3)nn3c(-c4ccc(N5C[C@@H]6C[C@H]5CN6)cc4)ccnc23)c1 [Example 29, 3-{7-[4-((1S,4S)-2,5-Diaza-bicyclo[2.2.1]hept-2-yl)-phenyl]-2-pyridin-4-yl-pyrazolo[1,5-a]pyrimidin-3-yl}-phenol]	0.0005 µM
CN1C[C@@H]2CC[C@H]1CN2c1ccc(-c2ccnc3c(-c4cccc5[nH]ncc45)c(-c4ccncc4)nn23)cc1 [Example 143, 3-(1H-indazol-4-yl)-7-{4-[(1S,4S)-5-methyl-2,5-diazabicyclo[2.2.2]oct-2-yl]phenyl}-2-pyridin-4-ylpyrazolo[1,5-a]pyrimidine]	0.0007 µM
CN1C[C@@H]2C[C@H]1CN2c1ccc(-c2ccnc3c(-c4cccc(O)c4)c(-c4ccncc4)nn23)c(F)c1 [Example 134, 3-(7-{2-fluoro-4-[(1S,4S)-5-methyl-2,5-diazabicyclo[2.2.1]hept-2-yl]phenyl}-2-pyridin-4-ylpyrazolo[1,5-a]pyrimidin-3-yl)phenol]	< 0.0003 µM
Fc1cc(N2C[C@@H]3C[C@H]2CN3)ccc1-c1ccnc2c(-c3ccc(F)c4[nH]ncc34)c(-c3ccncc3)nn12 [Example 106, 7-{4-[(1S,4S)-2,5-diazabicyclo[2.2.1]hept-2-yl]-2-fluorophenyl}-3-(7-fluoro-1H-indazol-4-yl)-2-pyridin-4-yl pyrazolo[1 5-a]pyrimidine]	< 0.0003 µM
Cc1cc(N2C[C@@H]3C[C@H]2CN3)ccc1-c1ccnc2c(-c3cccc4[nH]ncc34)c(-c3ccncc3)nn12 [Example 44, 7-(4-((1S,4S)-2,5-Diazabicyclo[2.2.1]heptan-2-yl)-2-methylphenyl)-3-(1H-indazol-4-yl)-2-(pyridin-4-yl)pyrazolo[1,5-a]pyrimidine]	0.0006 µM
Fc1cc(CN2C[C@@H]3C[C@H]2CN3)ccc1-c1ccnc2c(-c3cccc4[nH]ncc34)c(-c3ccncc3)nn12 [Example 205, 7-{4-[(1S,4S)-2,5-diazabicyclo[2.2.1]hept-2-ylmethyl]-2-fluorophenyl}-3-(1H-indazol-4-yl)-2-pyridin-4-ylpyrazolo[1,5-a]pyrimidine]	0.00035 µM
CC(C)N1C[C@@H]2C[C@H]1CN2c1cc(F)c(-c2ccnc3c(-c4cccc5[nH]ncc45)c(-c4ccncc4)nn23)c(F)c1 [Example 169, 7-{2,6-difluoro-4-[(1S,4S)-5-isopropyl-2,5-diazabicyclo[2.2.1]hept-2-yl]phenyl}-3-(1H-indazol-4-yl)-2-pyridin-4-ylpyrazolo[1,5-a]pyrimidine]	< 0.0003 µM
CC(=O)CN1C2CCC1CC(c1ccnc3c(-c4cccc5[nH]ncc45)c(-c4ccncc4)nn13)C2 (stereo not shown) [Example 130, 1-{3-[3-(1H-indazol-4-yl)-2-pyridin-4-ylpyrazolo[1,5-a]pyrimidin-7-yl]-8-azabicyclo[3.2.1]oct-8-yl}propan-2-one]	0.0759 µM
FC(F)(F)c1cc(-c2ccnc3c(-c4cccc5[nH]ncc45)c(-c4ccncc4)nn23)ccc1N1C[C@@H]2C[C@H]1CN2 [Example 157, 7-{4-[(1S,4S)-2,5-diazabicyclo[2.2.1]hept-2-yl]-3-(trifluoromethyl)phenyl}-3-(1H-indazol-4-yl)-2-pyridin-4-ylpyrazolo[1,5-a]pyrimidine]	0.0012 µM
CN1C[C@@H]2C[C@H]1CN2c1ccc(-c2ccnc3c(-c4ccc(F)c(O)c4)c(-c4ccncc4)nn23)cc1 [Example 54, 2-fluoro-5-(7-(4-((1S,4S)-5-methyl-2,5-diazabicyclo[2.2.1]heptan-2-yl)phenyl)-2-(pyridin-4-yl)pyrazolo[1,5-a]pyrimidin-3-yl)phenol]	0.15 µM
COc1cc(-c2c(-c3ccncc3)nn3c(-c4ccc(F)cc4N4C[C@@H]5C[C@H]4CN5)ccnc23)ccc1Cl [Example 49, 7-(2-((1S,4S)-2,5-Diazabicyclo[2.2.1]heptan-2-yl)-4-fluorophenyl)-3-(4-chloro-3-methoxyphenyl)-2-(pyridin-4-yl)pyrazolo[1,5-a]pyrimidine]	0.255 µM
CC(=O)N1C2CCC1CC(c1ccnc3c(-c4cccc5[nH]ncc45)c(-c4ccncc4)nn13)C2 (stereo not shown) [Example 119, 7-(8-acetyl-8-azabicyclo[3.2.1]oct-3-yl)-3-(1H-indazol-4-yl)-2-pyridin-4-ylpyrazolo[1,5-a]pyrimidine]	0.0091 µM
CCN1C2CCC1CC(c1ccnc3c(-c4ccc(Cl)c(O)c4)c(-c4ccncc4)nn13)C2 (stereo not shown) [Example 18, 2-Chloro-5-[7-(8-ethyl-8-azabicyclo[3.2.1]oct-3-yl)-2-pyridin-4-ylpyrazolo[1,5-a]pyrimidin-3-yl]phenol]	0.0006 µM
Fc1cc(F)c(-c2ccnc3c(-c4cccc5[nH]ncc45)c(-c4ccncc4)nn23)c(N2C[C@@H]3C[C@H]2CN3)c1 [Example 145, 7-{2-[(1S,4S)-2,5-diazabicyclo[2.2.1]hept-2-yl]-4,6-difluorophenyl}-3-(1H-indazol-4-yl)-2-pyridin-4-ylpyrazolo[1,5-a]pyrimidine]	0.0744 µM
COc1cc(-c2c(-c3ccncc3)nn3c(-c4ccc(N5C[C@@H]6C[C@H]5CN6C)cc4)ccnc23)ccc1F [Example 37, 3-(4-Fluoro-3-methoxyphenyl)-7-(4-((1S,4S)-5-methyl-2,5-diazabicyclo[2.2.1]heptan-2-yl)phenyl)-2-(pyridin-4-yl)pyrazolo[1,5-a]pyrimidine]	0.021 µM
COc1cccc(-c2c(-c3ccncc3)nn3c(-c4ccc(N5C[C@@H]6C[C@H]5CN6C)cc4)ccnc23)c1 [Example 36, 3-(3-Methoxyphenyl)-7-(4-((1S,4S)-5-methyl-2,5-diazabicyclo[2.2.1]heptan-2-yl)phenyl)-2-(pyridin-4-yl)pyrazolo[1,5-a]pyrimidine]	0.0082 µM
c1cc(-c2c(-c3ccncc3)nn3c(-c4coc(CN5C[C@@H]6C[C@H]5CN6)c4)ccnc23)c2cn[nH]c2c1 [Example 195, 7-{5-[(1S,4S)-2,5-diazabicyclo[2.2.1]hept-2-ylmethyl]furan-3-yl}-3-(1H-indazol-4-yl)-2-pyridin-4-ylpyrazolo[1,5-a]pyrimidine]	0.013 µM
CN(C)c1cc(N2C[C@@H]3C[C@H]2CN3C)ccc1-c1ccnc2c(-c3cccc4[nH]ncc34)c(-c3ccncc3)nn12 [Example 148, 2-[3-(1H-indazol-4-yl)-2-pyridin-4-ylpyrazolo[1,5-a]pyrimidin-7-yl]-N,N-dimethyl-5-[(1S,4S)-5-methyl-2,5-diazabicyclo[2.2.1]hept-2-yl]aniline]	0.0073 µM
CN1C[C@@H]2C[C@H]1CN2c1cc(F)c(-c2ccnc3c(-c4cccc5[nH]ncc45)c(-c4ccncc4)nn23)c(F)c1 [Example 101, 7-{2,6-difluoro-4-[(1S,4S)-5-methyl-2,5-diazabicyclo[2.2.1]hept-2-yl]phenyl}-3-(1H-indazol-4-yl)-2-pyridin-4-yl pyrazolo[1,5-a]pyrimidine]	< 0.0001 µM
Fc1c(-c2ccnc3c(-c4cccc5[nH]ncc45)c(-c4ccncc4)nn23)ccc(N2C[C@@H]3C[C@H]2CN3)c1F [Example 162, 7-{4-[(1S,4S)-2,5-diazabicyclo[2.2.1]hept-2-yl]-2,3-difluorophenyl}-3-(1H-indazol-4-yl)-2-pyridin-4-ylpyrazolo[1,5-a]pyrimidine]	0.0005 µM
CN(C)CC(=O)N1C2CCC1CC(c1ccnc3c(-c4cccc5[nH]ncc45)c(-c4ccncc4)nn13)C2 (stereo not shown) [Example 116, 2-{3-[3-(1H-indazol-4-yl)-2-pyridin-4-ylpyrazolo[1,5-a]pyrimidin-7-yl]-8-azabicyclo[3.2.1]oct-8-yl}-N,N-dimethyl-2-oxoethanamine]	0.0618 µM

same assay, conditions: Mean IC50 (uM), B-Raf IC50 Data for compounds of Formula A

Structure (SMILES)	IC50
COc1cc(-c2c(-c3ccncc3)nn3c(-c4ccc(N5CC6CCC(C5)N6C)cc4)ccnc23)ccc1Cl [Example 26, 3-(4-Chloro-3-methoxy-phenyl)-7-[4-(8-methyl-3,8-diaza-bicyclo[3.2.1]oct-3-yl)-phenyl]-2-pyridin-4-yl-pyrazolo[1,5-a]pyrimidine]	0.01 µM
